Counter-ions that a name gives are not always drawn.
How the values were obtained:
Type in all cases: physicochemical
[1] = Release rate by dialysis in a diffusion chamber model; conditions: against 20% glycerol, 3% Poloxamer 407, pH 7.4, 37° C.
Procedure: Amiodarone HCl and a tocol emulsion containing amiodarone and tocopherol phosphate as a tocol-soluble binary ion pair, prepared as mentioned above, were dialyzed against 20% glycerol, 3% Poloxamer 407 at pH 7.4 and 37° C.
The rate of free or complexed drug exiting the dialysis chamber provides an indirect estimate of the “sustained release” properties of the emulsion and the strength of the ion pair species.

[2] = Solubility of clarithromycin in tocopherol oil phase (crystals on cooling)
Procedure: Clarithromycin was obtained as the free base from Wockhardt (Delhi, India). Vitamin E Succinate (VESA) was obtained from Eastman (Freeport Tenn.). Capmul® MCM was obtained from Abitec (Janesville Wis.); Poloxamer® 407 (Pluronic® F-127) from BASF (Parsippany N.J.); PEG-400 from Spectrum Chemicals (Gardenia Calif.), and d-δ-tocopherol from Sigma Chemicals (St Louis MO). An oil phase consisting of d-δ-tocopherol and Capmul MCM was prepared using 2 parts of δ-tocopherol. Dry ethanol was used to dissolve the components at 70° C. and the ethanol was then removed under vacuum. […] A tocol-soluble ion pair of this compound was then produced by addition of a stoichiometric equivalent of Vitamin E succinate (VESA) as the free acid. […] The clarithromycin was now sufficiently soluble in the tocopherol oil to allow subsequent preparation of the emulsion. The oil was then re-heated to 45° C. and degassed immediately prior to emulsification as described below.

[3] = Erythromycin solubility in oils
[4] = Doxorubicin ion pair solubility in vitamin E and emulsification; conditions: ion pair with vitamin E phosphate free acid at 2:1 molar ratio
From the text: A fine emulsion can be prepared using high pressure homogenization to reduce particle size.

With `CCCCc1oc2ccccc2c1C(=O)c1cc(I)c(OCCN(CC)CC)c(I)c1` [Amiodarone HCl] the “Rate of dialysis / diffusion out of the dialysis chamber” value [1] was “linear with concentration”.

In the case of `CC[C@H]1OC(=O)[C@H](C)[C@@H](O[C@H]2C[C@@](C)(OC)[C@@H](O)[C@H](C)O2)[C@H](C)[C@@H](O[C@@H]2O[C@H](C)C[C@H](N(C)C)[C@H]2O)[C@](C)(OC)C[C@@H](C)C(=O)[C@H](C)[C@@H](O)[C@]1(C)O` [Clarithromycin], the “Crystallization upon cooling of the oil” value ([2]; after addition of a stoichiometric equivalent of Vitamin E succinate (free acid), re-dissolution in ethanol and cooling) is reported as “no crystals formed” and the “Crystallization upon cooling of the oil” value ([2]; d-δ-tocopherol/Capmul MCM oil phase with surfactant, ethanol removed, without Vitamin E succinate) is reported as “crystals of clarithromycin were observed”.

In the case of `CC[C@H]1OC(=O)[C@H](C)[C@@H](O[C@H]2C[C@@](C)(OC)[C@@H](O)[C@H](C)O2)[C@H](C)[C@@H](O[C@@H]2O[C@H](C)C[C@H](N(C)C)[C@H]2O)[C@](C)(O)C[C@@H](C)C(=O)[C@H](C)[C@@H](O)[C@]1(C)O` [Erythromycin], the “solubility in medium-chain triglycerides (MCT)” value ([3]; MCT) is reported as about 4 % w/w and the “solubility in α-tocopherol” value ([3]; α-tocopherol) is reported as “approximately 10 % w/w”.

In the case of `COc1cccc2c1C(=O)c1c(O)c3c(c(O)c1C2=O)C[C@@](O)(C(=O)CO)C[C@@H]3O[C@H]1C[C@H](N)[C@H](O)[C@H](C)O1` [doxorubicin free base, Doxorubicin], the “Solubility of ion pair in vitamin E” value [4] is reported as “soluble in vitamin E”.

Source: patent publication US6479540B1, “Compositions of tocol-soluble therapeutics” (Sonus Pharmaceuticals, Inc., priority 1999, dated 2002)
